# In US20170065517A1, “COMPOSITIONS FOR […] AGENTS ACROSS THE ORAL MUCOSA AND METHODS OF USE THEREOF” (PARATEK PHARMACEUTICALS, INC., priority 2004, published 2017):
# Experiment: Zolpidem membrane assay (lipid-coated dodecane membrane between donor and acceptor cell)
# Assay type: in vitro ADME
# Details: zolpidem tartrate solutions
# Method: Topics Med. Chem., 1:277-351 (2001). This assay uses a lipid-coated membrane to predict lipid mucosal membrane penetration. The membrane apparatus consists of a dodecane membrane sandwiched between a donor and acceptor cell. The lipid-coated membrane is less porous then the mucous membrane of the oral cavity. Thus, the enhancement seen in the membrane assay is very likely to be magnified in vivo.
# Membrane assays were performed using zolpidem tartrate solutions at a pH of 5.8, 6.8, and 7.8. The alkaline pH values of 7.8 were adjusted using freshly prepared 0.01 M sodium bicarbonate/sodium carbonate buffer solution. The acidic pH of 5.8 was achieved using a 0.01 M acetate buffer solution (a mixture of sodium acetate and acetic acid). The neutral pH of 6.8 was achieved by adding 0.01 M acetate solution to the sodium bicarbonate/sodium carbonate buffer solution. Permeation through the membrane was measured by determining the concentration of zolpidem in the acceptor cell and is expressed as Pc (effective permeability in centimeters per second).
compound,measurement,setting,value
Cc1ccc(-c2nc3ccc(C)cn3c2CC(=O)N(C)C)cc1 [zolpidem],increase of effective permeability (Pc),pH 7.8 relative to pH 5.8,129%
same,increase of effective permeability (Pc),pH 7.8 relative to pH 6.8,more than 53%
